1 substance from patent US20190041401A1, “Methods of Treating Subjects having Severe and/or Persistent Asthma” (National Jewish Health, priority 2015, published 2019) can be followed below.

The test system of assay [1] is human lung epithelial cell line A549. The assay can be described thus: IL-33 mRNA induction in A549 cells (real-time PCR). In kind it is cell-based. To be noted: cytokine treatment for 72 hours, normalized to GAPDH. Here is the method:
(§1) FIGS. 18A-18J show the role of IL-33 in the persistence of asthma. FIG. 18A, A549 cells were cultured in medium alone or with IL-33 ([…]), IL-1b (2 ng/mL), IL-4 (10 ng/mL), IL-13 (20 ng/mL), IL-17 (10 ng/mL), TNF (2 ng/mL), IFN-γ (10 ng/mL), or IFN-γ plus TNF (same concentrations) for 72 hours, and then mRNA was analyzed for IL-33 normalized to glyceraldehyde-3-phosphate dehydrogenase (GAPDH). *P<0.05 and **P<0.01. There were 4 to 8 mice per group. FIGS. 18B-18E show the direct effect of IL-33 on airway hyperreactivity, lung ILCs, and autoinduction. […] IN, Intranasal. […] The change in RL with the 25-mg dose of methacholine is shown (n=5 per group). *P<0.05.
Immediately after flexiVent analysis, lung sections were collected in RIPA buffer (50 mmol/L Tris [pH 7.4], 150 mmol/L NaCl, 1 mmol/L EDTA, 1 mmol/L NaF, 1 mmol/L Na3VO4, and 0.1 mmol/L phenylmethylsulfonyl fluoride) containing protease and phosphatase inhibitors and homogenized. Lysed samples were subjected to 10% SDS-PAGE, transferred to a polyvinylidene difluoride membrane, and then immunoblotted with primary antibodies (IL-33 [R&D Systems], tubulin [H-235], and b-actin [Santa Cruz Biotechnology, Dallas, Tex]). After washing, the membranes were incubated with a horseradish peroxidase-conjugated secondary antibody. After additional washing, the membranes were developed with ECL reagent, as previously described (Gorska et al. 2007). A549 cell culture A549 cells were cultured in RPMI in 10% FBS (HyClone; Thermo Scientific, Waltham, Mass.) and 1% penicillin/streptomycin (Gibco, Carlsbad, Calif.) and maintained at 378C in a humidified 5% CO2 incubator. All cytokines were purchased from PeproTech (Rocky Hill, N.J.). In one experiment cells were treated with medium, IL-1b (2 ng/mL), IL-4 (10 ng/mL), IL-13 (20 ng/mL), IL-17 (10 ng/mL), IL-33 (20 ng/mL), TNF (2 ng/mL), IFN-g (10 ng/mL), and TNF (2 ng/mL) plus IFN-g (10 ng/mL) for 72 hours. Cellular RNA was analyzed for mRNA for IL-33 and IL-33R. In a second experiment cells were pretreated for 24 hours with medium, IL-1b (2 ng/mL), IL-4 (10 ng/mL), IL-13 (20 ng/mL), IL-17 (10 ng/mL), TNF (2 ng/mL), or IFN-g (10 ng/mL) before stimulation for 72 hours with IL-33 (20 ng/mL). Cellular RNAwas analyzed for mRNA for IL-33. In a third experiment cells were treated for 24 hours with DRA (5 μg/mL dust mite, 15 μg/mL ragweed, and 5 μg/mL Aspergillus species). Cellular RNA was analyzed for mRNA for IL-33. In a fourth experiment cells were treated for 24 hours with IL-13 (20 ng/mL) and ATP, and the supernatant was collected and analyzed for IL-33 levels by means of ELISA, according to the manufacturer's instructions (R&D systems). […]
For orientation: Real-time PCR tracks product formation cycle by cycle.

Assay [2] has as its system A549 cells. The assay can be described thus: IL-33 secretion by A549 cells (ELISA). In kind it is cell-based, human. To be noted: IL-13 20 ng/mL and ATP, overnight. Here is the method: FIG. 27A, Effect of IL-13 on IL-33 secretion. A549 cells were treated overnight with medium or IL-13 (20 ng/mL) and ATP ([…]), and the released IL-33 was measured by using ELISA (n=6). *P=0.04. FIGS. 27B-27E, Direct effect of IL-33 on airway hyperreactivity and lung ILCs. C57Bl/6 mice were treated intranasally for 3 consecutive days with 400 ng per dose of IL-33. Outcome measures were evaluated 15 days after final exposure.
(§2) Immediately after flexiVent analysis, lung sections were collected in RIPA buffer (50 mmol/L Tris [pH 7.4], 150 mmol/L NaCl, 1 mmol/L EDTA, 1 mmol/L NaF, 1 mmol/L Na3VO4, and 0.1 mmol/L phenylmethylsulfonyl fluoride) containing protease and phosphatase inhibitors and homogenized. Lysed samples were subjected to 10% SDS-PAGE, transferred to a polyvinylidene difluoride membrane, and then immunoblotted with primary antibodies (IL-33 [R&D Systems], tubulin [H-235], and b-actin [Santa Cruz Biotechnology, Dallas, Tex]). […] Cellular RNA was analyzed for mRNA for IL-33 and IL-33R. […] Cellular RNAwas analyzed for mRNA for IL-33. […] Cellular RNA was analyzed for mRNA for IL-33. In a fourth experiment cells were treated for 24 hours with IL-13 (20 ng/mL) and ATP, and the supernatant was collected and analyzed for IL-33 levels by means of ELISA, according to the manufacturer's instructions (R&D systems).
Background: In an ELISA, binding on a coated surface is turned into a signal by an enzyme label.

The subject of assay [3] is A549 cells. Description: Cytokine induction of IL-33R mRNA in A549 cells. In kind it is cell-based, human. To be noted: cytokine treatment for 72 hours. Here is the method:
as §1
as §2, with “homogenized.” for “homogenized. Lysed samples were subjected to 10% SDS-PAGE, transferred to a polyvinylidene difluoride membrane, and then immunoblotted with primary antibodies (IL-33 [R&D Systems], tubulin [H-235], and b-actin [Santa Cruz Biotechnology, Dallas, Tex]).”, “systems). […]” for “systems).”

Assay [4] concerns A549 cells. The assay can be described thus: IL-33 autoinduction in A549 cells after cytokine pretreatment. In kind it is cell-based, human. The following applies: pretreated 24 hours with cytokine, then 72 hours with IL-33 (20 ng/mL). Here is the method:
as §1
as §2, with “homogenized.” for “homogenized. Lysed samples were subjected to 10% SDS-PAGE, transferred to a polyvinylidene difluoride membrane, and then immunoblotted with primary antibodies (IL-33 [R&D Systems], tubulin [H-235], and b-actin [Santa Cruz Biotechnology, Dallas, Tex]).”, “systems). […]” for “systems).”

As for “IL-13: cytokine purchased from PeproTech, 20 ng/mL on A549 cells”, in assay [1], the “induction of IL-33 mRNA” value was “most potent inducer of IL-33 mRNA”. The “secretion of IL-33” value with A549 cells [2] is given as “stimulated secretion of IL-33”. Also, in the assay with A549 cells [3], the “induction of IL-33R mRNA” value is on record as “strongly induced IL-33R”. Moreover, the “IL-33 autoinduction after preincubation with cytokine” value in the assay on A549 cells [4] is reported as “synergistically enhanced IL-33 autoinduction”.
